Data from article PMC6737244, “Cathelicidin Peptides Restrict Bacterial Growth via Membrane Perturbation and Induction of Reactive Oxygen Species” (mBio, 2019).
Ends that are not written are not given here.

Experiments:
E. faecalis = assay: CellROX ROS production, imaging; format: cell-based, Enterococcus faecalis; conditions: 500 nM, 2.5 μM CellROX
Text: (§1) The growth rate of the sodA mutant in the absence of peptide was lower than that of the wild type (WT), underscoring the importance of effectively controlling O2^− accumulation.

S. aureus [1] = assay: Growth of cultures (OD600) with sublethal peptide; format: cell-based, Staphylococcus aureus; conditions: for Effect on growth of S. aureus cultures: 30 nM peptide, CAMHB, OD600
Description: To examine this further, we monitored the growth of S. aureus cultures after the addition of 30 nM B22 or B22a. This concentration is in the biologically relevant range of peptide that is produced by mammals ([13]). […] Cell growth recovered at later time points (data not shown).

E. coli = assay: Growth of cultures (OD600) with sublethal peptide; conditions: nanomolar (30 nM) peptide, means of four data sets
E. cloacae [2] = assay: Growth of cultures (OD600) with sublethal peptide; conditions: nanomolar (30 nM) peptide, means of four data sets
V. cholerae [3] = assay: Single-cell real-time phase-contrast imaging in microfluidic chambers; format: cell-based, Vibrio cholerae; conditions: 2 μM peptide, continuous flow
Description: To better understand the antimicrobial activity of the peptides, we developed a single-cell, real-time imaging assay to monitor the disruption of V. cholerae cells. Bacteria were seeded into microfluidic chambers and grown under continuous flow before imaging by phase-contrast microscopy. Untreated V. cholerae cells retained their characteristic comma shape, cell length (1 by 2 μm), and membrane integrity (Fig. S2). Conversely, cells treated with 2 μM B22 (or B22a) began losing their shape and were noticeably shorter within 30 s (Fig. S2).
(§2) Imaging of individual cells was conducted using the CellAsic microfluidic perfusion system (ONIX) with integrated temperature controller and B04A bacterial microfluidic plates (EMD Millipore, Billerica, MA). The CellAsic ONIX FG software (v 5.0.2.0) was used to control flow rate and deliver fresh medium with or without antimicrobial peptide (AMP). The chambers were loaded by perfusion of 50 μl of a 10^6 cells/ml bacterial suspension at 2 lb/in^2 for 15 s to prime the cells followed by 4 lb/in^2 for 15 s to trap the cells. The chamber was then rinsed at 1 lb/in^2 for 30 s followed by 5 lb/in^2 for 5 min. To quickly switch solutions, medium was perfused at 10 lb/in^2 for 10 s, and then flow was reduced to 2 lb/in^2 for the remainder of the imaging.

V. cholerae [4] = assay: Growth of cultures (OD600) with sublethal peptide; conditions: nanomolar (30 nM) peptide, means of four data sets
[5] = tested on: Klebsiella pneumoniae 262 (NDM1+); format: cell-based
Description: (§3) MICs were determined by using the broth microdilution method based on the general recommendations of the Clinical and Laboratory Standards Institute (CLSI). Bacteria were grown in CAMHB overnight. They were then diluted into fresh medium the following morning and grown to early log phase. The cultures were then diluted to approximately 5 × 10^5 CFU ml^−1, and 100 μl was added to sterile 96-well polypropylene microtiter plates (Corning, NY, USA) preloaded with twofold dilutions of antimicrobial peptides. […] All MIC assays were determined from at least three independent assays.

[6] = tested on: Enterobacter cloacae OC4080; format: cell-based
Description: as §3

[7] = tested on: Klebsiella pneumoniae 88 (NDM1+); format: cell-based
Description: as §3

[8] = tested on: Escherichia coli ATCC 35218; format: cell-based
Description: as §3

Escherichia coli OC4075 = format: cell-based
Description: as §3

[9] = tested on: Klebsiella pneumoniae OC4110; format: cell-based
Description: as §3

Escherichia coli UTI89 = format: cell-based
Description: as §3

Escherichia coli MC4100a = format: cell-based
Description: as §3

[10] = tested on: Enterobacter cloacae OC4092; format: cell-based
Description: as §3

[11] = tested on: Escherichia coli ATCC 25922; format: cell-based
Description: as §3

[12] = tested on: Pseudomonas aeruginosa OC4083; format: cell-based
Description: as §3

[13] = tested on: Pseudomonas aeruginosa PAO1; format: cell-based
Description: as §3

Klebsiella pneumoniae C2 = format: cell-based
Description: as §3

[14] = tested on: Pseudomonas aeruginosa ATCC 27853; format: cell-based
Description: as §3

[15] = tested on: Klebsiella pneumoniae OC8893; format: cell-based
Description: as §3

[16] = tested on: Klebsiella pneumoniae ATCC 700603; format: cell-based
Description: as §3

S. aureus [17] = assay: CellROX ROS production, imaging; format: cell-based, Staphylococcus aureus; conditions: for CellROX oxidative signal, parental strain: S. aureus WT; for CellROX oxidative signal, parental strain / CellROX oxidative signal, sodA or sodM null mutants: 100 nM, 30 min; for CellROX oxidative signal, sodA or sodM null mutants: S. aureus sodA or sodM
Text: as §1

V. cholerae [18] = assay: SYTOX Green membrane damage, single-cell imaging; format: cell-based, Vibrio cholerae; conditions: for Number of fluorescent cells: V. cholerae, 25, 50 or 100 nM peptide (Fig. S4; legend says SYTOX Green)
Description: To better understand the membrane blebbing event, V. cholerae was treated with B22 in the presence of SYTOX Green and imaged on agarose pads to stabilize cells with compromised envelopes. SYTOX Green is a fluorescent nucleic acid stain that is impermeant to live cells and is used to distinguish dead or dying cells in a population ([17]). Cells were treated with a sublethal (1 μM) concentration of B22 in order to visualize physiological changes in susceptible and unaffected cells simultaneously. Time-lapse phase-contrast imaging was used to monitor tip-to-tip cell length and membrane integrity.
SYTOX Green (Invitrogen, Carlsbad, CA, USA) uptake was used to monitor the effect of the AMPs on bacterial membranes. Mid-log cells were resuspended in CAMHB to 1 × 10^6 CFU/ml and seeded into microfluidic chambers as described above. The cells were then flushed with medium containing 0.1 μM SYTOX Green for 5 min. The same medium was used for control cells, while the medium for treatment samples also included AMP at the indicated concentration. Fluorescence was detected by microscopy as described earlier using the GFP filter set.

E. cloacae [19] = assay: Single-cell division time, time-lapse phase-contrast microscopy; format: cell-based, Enterobacter cloacae; conditions: 30 nM, first three generations
Description: To confirm that sublethal levels of cathelicidins affected the growth of Gram-negative bacteria, the division of single cells of E. coli and E. cloacae was monitored. Cells were seeded into microfluidic chambers and grown under continuous flow, and time-lapse phase-contrast microscopy was used to record the cell division time in the presence or absence of B22a.
as §2

| Substance | Effect on growth of S. aureus cultures (S. aureus [1]) | Effect on growth rate (E. coli) | Effect on growth rate (E. cloacae [2]) | Time until cells began losing shape and were noticeably shorter (V. cholerae [3]) [s] | Effect on growth rate (V. cholerae [4]) | MIC [5] [µM] | MIC [6] [µM] | MIC [7] [µM] | MIC [8] [µM] | MIC (Escherichia coli OC4075) [µM] | MIC [9] [µM] | MIC (Escherichia coli UTI89) [µM] | MIC (Escherichia coli MC4100a) [µM] | MIC [10] [µM] | MIC [11] [µM] | MIC [12] [µM] | MIC [13] [µM] | MIC (Klebsiella pneumoniae C2) [µM] | MIC [14] [µM] | MIC [15] [µM] | also measured |
| --- | --- | --- | --- | --- | --- | --- | --- | --- | --- | --- | --- | --- | --- | --- | --- | --- | --- | --- | --- | --- | --- |
| FRKKLKKLFKKLSPVIPLLKLG [B22] | reduced the initial growth rate | reproducibly reduced the growth rate | reproducibly reduced the growth rate | ≤ 30 | reproducibly reduced the growth rate | 4 | 4 | 4 | 4 | 4 | 4 | 2 | 4 | 4 | 2 | 2 | 4 | 4 | 4 | 4 | CellROX oxidative signal (E. faecalis): fluorescent burst; Effect on growth of WT strain (S. aureus [1]; S. aureus WT, 30 nM): slowed the growth; Effect on growth of sodA mutant (S. aureus [1]; S. aureus sodA, 30 nM, compared with WT): to an even greater extent; MIC [16]: 2 µM; CellROX oxidative signal, parental strain (S. aureus [17]): weak signal; CellROX oxidative signal, sodA or sodM null mutants (S. aureus [17]): strong oxidative signal; CellROX oxidative signal (S. aureus [17]; S. aureus, 500 nM, 2.5 μM CellROX): fluorescent burst; Share of population with strong cytoplasmic SYTOX Green signal (V. cholerae [18]; 1 μM (sublethal), agarose pads, SYTOX Green): approximately 35%; Decrease in cell contrast of dying cells (V. cholerae [18]; 1 μM, agarose pads, time-lapse phase contrast): > 90%; Number of fluorescent cells (V. cholerae [18]): increased |
| FRKKLKKLFKKLSPVIPLLKLG-NH2 [B22a] | reduced the initial growth rate | reproducibly reduced the growth rate | reproducibly reduced the growth rate | ≤ 30 | reproducibly reduced the growth rate | 4 | 4 | 2 | 2 | 2 | 2 | 2 | 4 | 4 | 2 | 2 | 2 | 2 | 2 | 2 | Cell division time (E. cloacae [19]): increased twofold; MIC [16]: 2 µM; CellROX oxidative signal, parental strain (S. aureus [17]): weak signal; CellROX oxidative signal, sodA or sodM null mutants (S. aureus [17]): strong oxidative signal; Number of fluorescent cells (V. cholerae [18]): increased |
